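Method: 48-hour compound exposure of cells in 96-well plates, five concentrations, linear interpolation of endpoints. TGI: concentration producing complete growth inhibition.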
Columns and labels:
Assay in all cases: growth of human tumour cells (NCI), 48 h
786-0 renal = tested on: 786-0 renal
A498 renal = tested on: A498 renal
A549 NSCLC = tested on: A549 NSCLC
ACHN renal = tested on: ACHN renal
BT-549 breast = tested on: BT-549 breast
CAKI-1 renal = tested on: CAKI-1 renal
CCRF-CEM leukemia = tested on: CCRF-CEM leukemia
COLO 205 colon = tested on: COLO 205 colon
DU-145 prostate = tested on: DU-145 prostate
EKVX NSCLC = tested on: EKVX NSCLC
HCT-116 colon = tested on: HCT-116 colon
HCT-15 colon = tested on: HCT-15 colon
HL-60(TB) leukemia = tested on: HL-60(TB) leukemia
HOP-62 NSCLC = tested on: HOP-62 NSCLC
HOP-92 NSCLC = tested on: HOP-92 NSCLC
HS 578T breast = tested on: HS 578T breast
HT29 colon = tested on: HT29 colon
IGROV1 ovarian = tested on: IGROV1 ovarian
K-562 leukemia = tested on: K-562 leukemia
KM12 colon = tested on: KM12 colon
M14 melanoma = tested on: M14 melanoma
MALME-3M melanoma = tested on: MALME-3M melanoma
MCF7 breast = tested on: MCF7 breast
MDA-MB-231 breast = tested on: MDA-MB-231 breast
MDA-MB-435 = tested on: MDA-MB-435
MOLT-4 leukemia = tested on: MOLT-4 leukemia
NCI-H226 lung = tested on: NCI-H226 lung
NCI-H23 lung = tested on: NCI-H23 lung
NCI-H460 lung = tested on: NCI-H460 lung
NCI-H522 lung = tested on: NCI-H522 lung
NCI/ADR-RES ovarian = tested on: NCI/ADR-RES ovarian
OVCAR-3 ovarian = tested on: OVCAR-3 ovarian
OVCAR-4 ovarian = tested on: OVCAR-4 ovarian
OVCAR-5 ovarian = tested on: OVCAR-5 ovarian
OVCAR-8 ovarian = tested on: OVCAR-8 ovarian
PC-3 prostate = tested on: PC-3 prostate
RPMI-8226 leukemia = tested on: RPMI-8226 leukemia
RXF 393 renal = tested on: RXF 393 renal
SF-268 CNS = tested on: SF-268 CNS
SF-295 CNS = tested on: SF-295 CNS
SF-539 CNS = tested on: SF-539 CNS
SK-MEL-2 melanoma = tested on: SK-MEL-2 melanoma
SK-MEL-28 melanoma = tested on: SK-MEL-28 melanoma
SK-MEL-5 melanoma = tested on: SK-MEL-5 melanoma
SK-OV-3 ovarian = tested on: SK-OV-3 ovarian
SN12C renal = tested on: SN12C renal
SNB-19 CNS = tested on: SNB-19 CNS
SNB-75 CNS = tested on: SNB-75 CNS
SR leukemia = tested on: SR leukemia
SW-620 colon = tested on: SW-620 colon
T-47D breast = tested on: T-47D breast
U251 CNS = tested on: U251 CNS
UACC-257 melanoma = tested on: UACC-257 melanoma
UACC-62 melanoma = tested on: UACC-62 melanoma
UO-31 renal = tested on: UO-31 renal

Measured: TGI

Nc1nc(N)c(C2=CCNCC2)c(=O)[nH]1
> 100 µM: all assays above

Reference: PubChem BioAssay (NCI)
